Experimental data reported in paper PMC6934184, “Selective DNA-PKcs inhibition extends the therapeutic index of localized radiotherapy and chemotherapy” (The Journal of Clinical Investigation, 2019).

Target: T1, YES1 (Homo sapiens, UniProt P07947)
T1 construct: purchased Thermo Fisher Scientific (Life Technologies) SelectScreen
Assay: SelectScreen Z'LYTE
Type: biochemical
Procedure, shortened: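 NU5455 was profiled across the SelectScreen Broad panel of kinase activity and binding assays. Z'LYTE reactions such as CSF1R ran at apparent Km ATP, while the Adapta CAMK1 assay used ATP listed as 10. Values are given as percent.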

T1 sequence (P07947 whole entry): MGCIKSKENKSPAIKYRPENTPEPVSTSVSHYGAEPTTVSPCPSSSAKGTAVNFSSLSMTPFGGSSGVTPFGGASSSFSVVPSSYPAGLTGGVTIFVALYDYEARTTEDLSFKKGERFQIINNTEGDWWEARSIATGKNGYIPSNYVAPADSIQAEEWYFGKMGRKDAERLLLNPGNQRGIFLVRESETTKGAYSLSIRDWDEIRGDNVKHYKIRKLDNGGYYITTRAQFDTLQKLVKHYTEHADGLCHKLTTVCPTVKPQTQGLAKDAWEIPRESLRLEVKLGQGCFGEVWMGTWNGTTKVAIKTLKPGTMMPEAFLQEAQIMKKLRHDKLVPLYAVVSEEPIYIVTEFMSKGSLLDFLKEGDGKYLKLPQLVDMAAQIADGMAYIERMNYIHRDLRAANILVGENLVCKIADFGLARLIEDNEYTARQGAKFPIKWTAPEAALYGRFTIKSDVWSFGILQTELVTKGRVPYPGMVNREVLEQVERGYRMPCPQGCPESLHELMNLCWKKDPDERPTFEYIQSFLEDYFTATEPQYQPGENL

With CN(C(=O)CN1CCOCC1)c1ccc2sc3c(-c4cccc5c(=O)cc(N6CC7CCC(C6)O7)oc45)cccc3c2c1 [NU5455] the inhibition at 1 µM was 7.4%.
